For assay [1], the system named is anti-SAM monoclonal antibodies. Kind of assay: Cross-reaction of anti-SAM antibody with MAT substrates ATP and L-Met, direct competitive ELISA. As to conditions: for Cross-reaction (%): relative to SAM standard at 50% inhibition. Type of assay: binding. The method, then: (A) Antigen-coating method: A PLL or BSA-conjugated SAM antigen is pre-coated on a solid-phase ELISA micro-titer plate that is then blocked with BSA solution. The antigen to be detected (SAM sample), then HRP-conjugated anti-SAM antibody are added and incubated at the same time. The antigen to be tested and the coating antigen compete for the enzyme-labeled antibody. After incubation and washing, the enzyme-labeled antibody bound to the coating antigen is retained, and the enzyme-labeled antibody that binds to the antigen to be detected (free antigen) is washed away. Finally, adding TMB substrate to the reaction wells. The final coloration result is inversely proportional to the amount of the antigen to be detected, that is, the higher the OD450 value, the lower the SAM concentration in the sample to be measured. In the course of the experiment, a series of SAM solutions with a known concentration were used as standards in the same ELISA micro-titer plate for the standard curve of the assay. Based on the standard curve, an equation showing how OD450 readings and values of the known standard concentration are related can be obtained. Put the sample OD450 into the equation to get the corresponding concentration value of the sample.
The ELISA plates were coated with PLL SAM antigen. […] The HRP-anti-SAM antibody was diluted at 1:25000 with HRP antibody diluent. Added 30 μl standards and cross-reacting substances ATP and Met per well, and 70 μl diluted HRP-anti-SAM antibody per well and incubated at 37° C. for 1 h. Washed the plate, added 100 μl TMB at 37° C. for 15 min, added 50 μl stop solution and read OD450.
A/A0; reaction rate (A0 is the OD450 reading at 0 nM, A represents any OD450 reading of wells that have different amount of free small molecule antigen competing.)

Assay [2] relates to MAT-III/I in L02 cells. Kind of assay: Intracellular MAT activity in L02 cells after GSNO pretreatment and Met. Type of assay: cell-based, human.
The target in assay [3] is T1, MAT-II in HepG2 cells (Homo sapiens, UniProt P31153).
T1 construct: endogenous in cells; host or cells: HepG2
The experiment in a line: Intracellular MAT activity in HepG2 cells after GSNO pretreatment and Met. Type of assay: cell-based.

For assay [4], the target named is methionine adenosyltransferase (MAT) (Escherichia coli, UniProt P0A817).
The mark [5] stands for this setting: cross-reacting substance 120 nM.
Setting [6] is: cross-reacting substance 1200 nM.
Where [7] appears, read: cross-reacting substance 3960 nM.
Setting [8] is: cross-reacting substance 12000 nM.

Entries after “also recorded” stand apart in the source; their conditions may differ. Where two headings read alike, the source gives them in different places. A value given as a limit tells only on which side of the number the result lay.

Regarding `Nc1ncnc2c1ncn2[C@@H]1O[C@H](COP(=O)(O)OP(=O)(O)OP(=O)(O)O)[C@@H](O)[C@H]1O` [ATP, adenosine triphosphate], the “A/A0 (reaction rate)” value was 1.051 in assay [1] (setting [5]), 1.001 in assay [1] (setting [6]), 1.095 in assay [1] (setting [7]) and 1.086 in assay [1] (setting [8]). Also, the “Cross-reaction (%)” value in assay [1] is below 1%.

With `N[C@@H](CCC(=O)N[C@@H](CSN=O)C(=O)NCC(=O)O)C(=O)O` [GSNO, nitrosoglutathione], the “effect of GSNO nitrosylation on MAT-III/I” value in assay [2] (1 mM GSNO pretreatment, Met stimulation) is listed as “inhibition of MAT-III or MAT-I after nitrosation of GSNO was obvious; also recorded: inhibitory effect of GSNO nitrosylation on MAT-III/I was obvious”. For the same molecule, the “effect of GSNO nitrosylation on MAT activity” value in assay [2] (in the presence of 2 mM Met) was “remained obvious”. The “effect of GSNO nitrosylation on MAT-II” value in assay [3] (1 mM GSNO pretreatment) is listed as “minor effect on MAT-II; also recorded: no inhibitory effect on MAT-II”.

As to `[Cl-].[K+]` [KCl], the A/A0 in assay [4] (KCl 50 mM, 20 mM MgSO4, 100 mM Tris, ATP 5 mM, Met 4 mM, MAT 1 mg/ml) is 0.1983; in assay [4] (KCl 100 mM) it was 0.1938; in assay [4] (KCl 150 mM), 0.1911; in assay [4] (KCl 200 mM), 0.1973; in assay [4] (KCl 250 mM), 0.2079; in assay [4] (KCl 300 mM) it was 0.2106. The same molecule registered an A/A0 in assay [4] (KCl 400 mM) of 0.1995.

As to `CSCC[C@H](N)C(=O)O` [Met, methionine], the “SAM (nM) synthesized by MAT” value is reported as 377.7 nM in assay [2] (0.5 mM Met 24 h, normalized to 2×10^7 cells, 0 mM Met control 274.4578162); 236.4 nM in assay [2] (2 mM Met 24 h); 222.3993 nM in assay [3] (0.5 mM Met 24 h, normalized to 2×10^7 cells, 0 mM Met control 247.4761); 174.3621 nM in assay [3] (2 mM Met 24 h). In addition, the “effect on MAT-III/I activity” value in assay [2] (500 μM Met, 24 hours) is recorded as “stimulated the activity of MAT-III or MAT-I; also recorded: stimulated MAT-III/I activity”; in assay [2] (2 mM Met), “No stimulatory effects; also recorded: stimulation was not significant”. Also, the “effect on MAT-II activity” value in assay [3] (Met 0.5 and 2 mM) is “the higher the Met concentration, the lower the activity of MAT-II; also recorded: inhibits MAT-II activity”. Besides, the “A/A0 (reaction rate)” value was found to be 1.042 in assay [1] (setting [5]), 1.046 in assay [1] (setting [6]), 1.012 in assay [1] (setting [7]) and 1.095 in assay [1] (setting [8]). In addition, in assay [1], the “Cross-reaction (%)” value is on record as below 1%.

On to `O=S(=O)([O-])[O-].[Mg+2]` [MgSO4], for which the A/A0 in assay [4] (MgSO4 4 mM, 250 mM KCl, 100 mM Tris, ATP 5 mM, Met 4 mM, MAT 1 mg/ml) is recorded as 0.2199; in assay [4] (MgSO4 10 mM) it was 0.2047; in assay [4] (MgSO4 30 mM) it was 0.1867; in assay [4] (MgSO4 50 mM), 0.1766; in assay [4] (MgSO4 70 mM), 0.1734; in assay [4] (MgSO4 100 mM), 0.1724. Moreover, the “decrease of A/A0” value in assay [4] (MgSO4 from 4 mM to 100 mM) is on record as 0.475.

As to `NC(CO)(CO)CO` [Tris, tris (hydroxymethyl) aminomethane], the A/A0 in assay [4] (Tris 20 mM, after optimal Mg2+ and K+ were determined) is 0.4981; in assay [4] (Tris 50 mM), 0.2567; in assay [4] (Tris 100 mM), 0.2168; in assay [4] (Tris 200 mM) it was 0.2472.
